Data taken from patent publication US11214803B2, “Modulators of YAP1 expression” (Ionis Pharmaceuticals, Inc., priority 2019, dated 2022).
Strand notation (5' to 3'): a small letter for the sugar, then the base; units joined by * are phosphorothioate-linked, units joined directly phosphodiester-linked; [ ] holds rarer units or linkages, { } end groups; capitals alone tell only the bases. k = constrained ethyl (cEt); [5mC] = 5-methylcytosine; d = 2'-deoxy (DNA)

Test system: Yap1 mRNA
Assay: Dose-dependent inhibition of human Yap1 in A-431 cells (Example 7, 10,000 cells per well, RTS36584)
Assay type: cell-based
Conditions: free uptake
Experimental: Modified oligonucleotides described in the studies above were tested at various doses in A-431 cells. Cultured A-431 cells at a density of 10,000 cells per well were treated using free uptake with modified oligonucleotides diluted to concentrations described in the tables below. After approximately 48 hours, Yap1 mRNA levels were measured as previously described using the Human Yap1 primer-probe set RTS36584. Yap1 mRNA levels were normalized to total RNA content, as measured by RIBOGREEN®. Results are presented in the tables below as percent control of the amount of Yap1 mRNA relative to untreated control cells (% UTC). IC50s were calculated using a linear regression on a log/linear plot of the data in excel.

[1] = Table 56, 15.6 nM, A-431 cells 10,000 cells per well, 48 hours
[2] = Table 56, 62.5 nM, A-431 cells 10,000 cells per well, 48 hours
[3] = Table 56, 4000.00 nM, A-431 cells 10,000 cells per well, 48 hours
[4] = Table 56, A-431 cells 10,000 cells per well
[5] = Table 58, 15.6 nM, A-431 cells 10,000 cells per well, 48 hours
[6] = Table 58, 62.5 nM, A-431 cells 10,000 cells per well, 48 hours
[7] = Table 58, 4000.00 nM, A-431 cells 10,000 cells per well, 48 hours
[8] = Table 58, A-431 cells 10,000 cells per well
[9] = Table 60, 15.6 nM, A-431 cells 10,000 cells per well, 48 hours
[10] = Table 60, 62.5 nM, A-431 cells 10,000 cells per well, 48 hours
[11] = Table 60, 4000.00 nM, A-431 cells 10,000 cells per well, 48 hours
[12] = Table 60, A-431 cells 10,000 cells per well
[13] = 15.6 nM, A-431 cells, 10,000 cells per well, approximately 48 hours
[14] = 62.5 nM, A-431 cells, 10,000 cells per well, approximately 48 hours
[15] = 4000.00 nM, A-431 cells, 10,000 cells per well, approximately 48 hours
[16] = A-431 cells, approximately 48 hours, linear regression on log/linear plot

Substance: 958369 (antisense kT*kT*kA*dT*d[5mC]*dT*dA*dG*d[5mC]*dT*dT*dG*dG*kT*kG*kG) [compound 958369]
- Yap1 mRNA, % UTC [1]: 107 % UTC
- Yap1 mRNA, % UTC [2]: 68 % UTC
- Yap1 mRNA, % UTC [3]: 17 % UTC
- IC50 [4]: 170 nM

Substance: 958727 (kA*kT*k[5mC]*dT*dG*dT*d[5mC]*dA*dG*dT*dT*dA*dT*k[5mC]*k[5mC]*kT; antisense) [compound 958727]
- Yap1 mRNA, % UTC [5]: 90 % UTC
- Yap1 mRNA, % UTC [6]: 42 % UTC
- Yap1 mRNA, % UTC [7]: 8 % UTC
- IC50 [8]: 100 nM

Substance: 958813 (kT*kT*kA*d[5mC]*dA*dG*dA*dG*dA*dG*dA*dT*dT*k[5mC]*kA*kT; antisense) [compound 958813]
- Yap1 mRNA, % UTC [9]: 81 % UTC
- Yap1 mRNA, % UTC [10]: 79 % UTC
- Yap1 mRNA, % UTC [11]: 29 % UTC
- IC50 [12]: 200 nM

Substance: 958451 (antisense k[5mC]*kA*k[5mC]*dG*dA*dT*d[5mC]*dT*dG*dA*dT*dG*d[5mC]*k[5mC]*k[5mC]*kG) [compound 958451]
- Yap1 mRNA, % UTC (Table 57, 15.6 nM, A-431 cells 10,000 cells per well, 48 hours): 98 % UTC
- Yap1 mRNA, % UTC (Table 57, 62.5 nM, A-431 cells 10,000 cells per well, 48 hours): 74 % UTC
- Yap1 mRNA, % UTC (Table 57, 4000.00 nM, A-431 cells 10,000 cells per well, 48 hours): 23 % UTC
- IC50 (Table 57, A-431 cells 10,000 cells per well): 200 nM

Substance: 958532 (kG*kA*kA*dG*dT*dA*dG*dG*dA*dG*d[5mC]*dA*dA*kG*kT*k[5mC]; antisense) [compound 958532]
- Yap1 mRNA, % UTC [5]: 88 % UTC
- Yap1 mRNA, % UTC [6]: 44 % UTC
- Yap1 mRNA, % UTC [7]: 7 % UTC
- IC50 [8]: 100 nM

Substance: 958593 (kG*kG*kT*d[5mC]*dA*dG*dT*dA*d[5mC]*dA*dG*dA*dG*kG*kG*k[5mC]; antisense) [compound 958593]
- Yap1 mRNA, % UTC [9]: 99 % UTC
- Yap1 mRNA, % UTC [10]: 60 % UTC
- Yap1 mRNA, % UTC [11]: 15 % UTC
- IC50 [12]: 100 nM

Substance: 958570 (kT*kG*kT*dA*dA*dT*dT*d[5mC]*dA*dT*dA*dT*dA*k[5mC]*k[5mC]*k[5mC]; antisense) [compound 958570]
- Yap1 mRNA, % UTC [13]: 93 % UTC
- Yap1 mRNA, % UTC [14]: 60 % UTC
- Yap1 mRNA, % UTC [15]: 17 % UTC
- IC50 [16]: 100 nM

Substance: 958373 (antisense kA*kG*kG*dT*dG*d[5mC]*dT*dA*dG*d[5mC]*dT*dG*dG*kT*kG*k[5mC]) [compound 958373]
- Yap1 mRNA, % UTC [1]: 72 % UTC
- Yap1 mRNA, % UTC [2]: 45 % UTC
- Yap1 mRNA, % UTC [3]: 17 % UTC
- IC50 [4]: 50 nM

Substance: 958550 (k[5mC]*k[5mC]*kT*dG*dT*dA*dG*dA*d[5mC]*dA*d[5mC]*dA*dT*kA*k[5mC]*kT; antisense) [compound 958550]
- Yap1 mRNA, % UTC [13]: 91 % UTC
- Yap1 mRNA, % UTC [14]: 60 % UTC
- Yap1 mRNA, % UTC [15]: 10 % UTC
- IC50 [16]: 100 nM

Substance: 958558 (kT*kT*k[5mC]*dA*d[5mC]*dA*dA*d[5mC]*d[5mC]*dA*dA*d[5mC]*dT*kA*kT*kT; antisense) [compound 958558]
- Yap1 mRNA, % UTC [9]: 84 % UTC
- Yap1 mRNA, % UTC [10]: 83 % UTC
- Yap1 mRNA, % UTC [11]: 35 % UTC
- IC50 [12]: 500 nM

Substance: 958735 (kA*kG*k[5mC]*dA*dA*dT*d[5mC]*dT*dT*dG*dT*dG*dG*kA*kT*k[5mC]; antisense) [compound 958735]
- Yap1 mRNA, % UTC [13]: 116 % UTC
- Yap1 mRNA, % UTC [14]: 69 % UTC
- Yap1 mRNA, % UTC [15]: 23 % UTC
- IC50 [16]: 200 nM

Substance: 958577 (kT*k[5mC]*kT*dG*dT*dG*dG*d[5mC]*dT*dA*d[5mC]*dT*dG*kG*k[5mC]*kA; antisense) [compound 958577]
- Yap1 mRNA, % UTC [5]: 81 % UTC
- Yap1 mRNA, % UTC [6]: 51 % UTC
- Yap1 mRNA, % UTC [7]: 11 % UTC
- IC50 [8]: 100 nM

Substance: 958605 (k[5mC]*kT*k[5mC]*dA*dG*dA*dT*dG*dT*dA*d[5mC]*d[5mC]*dA*kA*k[5mC]*kG; antisense) [compound 958605]
- Yap1 mRNA, % UTC [13]: 76 % UTC
- Yap1 mRNA, % UTC [14]: 63 % UTC
- Yap1 mRNA, % UTC [15]: 9 % UTC
- IC50 [16]: 100 nM

Substance: 958615 (kT*kG*kG*dT*d[5mC]*dT*dT*dG*dT*dT*d[5mC]*dT*dT*kA*kT*kG; antisense) [compound 958615]
- Yap1 mRNA, % UTC [13]: 91 % UTC
- Yap1 mRNA, % UTC [14]: 60 % UTC
- Yap1 mRNA, % UTC [15]: 18 % UTC
- IC50 [16]: 100 nM
